{"source": "BindingDB's records for doi:10.1021/jm021079g", "about": "(Academy of Sciences of The Czech Republic, 2003)", "target": "T1, Dimer of Gag-Pol polyprotein [501-599] (Human immunodeficiency virus 1, UniProt P03367)", "T1 construct": "501-599", "test": "Protease Inhibition Assay", "conditions": "pH 4.7", "description": "Inhibition constants were determined by a spectrophotometric assay with the chromogenic peptide substrate."}
{"smiles": "CC(C)(C)OC(=O)N[C@@H](Cc1ccccc1)[C@@H](O)CN[C@@H](Cc1ccccc1)C(=O)N[C@@H](CCC(=O)O)C(=O)N[C@@H](Cc1ccccc1)C(N)=O", "values": [{"measurement": "Ki", "value": 0.00015, "unit": "µM"}]}
{"smiles": "CC(C)(C)OC(=O)N[C@@H](Cc1ccccc1)[C@@H](O)CN[C@@H](Cc1ccccc1)C(=O)N[C@@H](CCC(N)=O)C(=O)N[C@@H](Cc1ccccc1)C(N)=O", "values": [{"measurement": "Ki", "value": 0.033, "unit": "µM"}]}
